# Measured values published in patent US20150065442A1, “REDUCIBLE SELF-ASSEMBLED MICELLE DRUG DELIVERY SYSTEMS” (University of Manitoba, priority 2012, published 2015).
# Experiments:
# HepG2 cells = assay: MTT cytotoxicity (cell inhibition) assay; assay type: cell-based, human
# Method: Hepatoma cells (HepG2) were used to investigate cell inhibition of DOX-loaded nanoparticles. HepG2 cells were obtained from the American Type Culture Collection and cultured with Dulbecco's Modified Eagle's Medium (DMEM, GIBCO) supplemented with 10% fetal bovine serum (FBS, GIBCO), 1.0×10^5 U/l penicillin (Sigma) and 100 mg/l streptomycin (Sigma) at 37° C. in 5% CO2.
# The cytotoxicity of the copolymeric micelles loaded with DOX was determined using the MTT Cell Proliferation Kit (Biotium Inc., Hayward, Calif., USA). HepG2 cells were seeded into a 96-well tissue culture plate at a density of 8,000 cells per well and were incubated at 37° C. in 5% CO2. The growth medium was replaced with fresh DMEM after 24 h. Then the DOX-loaded PAE polymeric micelle solution and controls (free DOX and blank micelle solutions) were added into wells (six wells per sample). After 48 h of incubation, 10 μL MTT solution was added to each well and incubation continued for another 4 h. […] The absorbance of each well was measured using an ELISA plate reader at a test wavelength of 570 nm and a reference wavelength of 630 nm. The cell inhibition of samples was calculated as: […]
# where Isample and Icontrol represent the intensity determined for cells treated with different samples and for control cells (untreated), respectively.
# [1] = tested on: hepatocellular carcinomatous HepG2 cells; assay: Cellular uptake of DOX by confocal laser scanning microscopy; assay type: cell-based, human
# Method: Confocal laser scanning microscopy (CLSM) was employed to examine the cellular uptake of DOX by incubating hepatocellular carcinomatous HepG2 cells with free DOX or the DOX-loaded micelles for 15 min, 2 h or 24 h. First, the HepG2 cells were seeded in culture dishes at a density of 2×10^5 cells/dish, overlaid with cover slips, and cultured for 24 h. Then, the cells were exposed to DOX-loaded micelles. After predetermined incubation times, the cover slips were removed and was washed with cold PBS three times after which, the cells were fixed by 4% paraformaldehyde in PBS at room temperature for 15 min. After fixation, the cells were permeabilized by 0.1% Triton X-100 in PBS for 10 min and then rinsed with PBS three times. The cells were incubated in 10 uM BODIPY® FL phallacidin/1% (w/v) BSA solution for 20 min and then rinsed with PBS three times (BODIPY is a registered trademark of Molecular Probes Inc., Eugene, Oreg., USA). The cells were then incubated in 10 μM Topro-3 for 20 min and then rinsed with PBS three times. The cover slips were set onto microscope slides and examined by CLSM.
# [2] = tested on: MCF-7 human breast cancer cells; assay: as above; assay type: cell-based
# Method: Confocal laser scanning microscopy (CLSM) was employed to examine the cellular uptake of DOX by incubating MCF-7 human breast cancer cells with free DOX or DOX-loaded reducible self-assembled rPAE micelles or DOX-loaded non-reducible self-assembled nPAE micelles for 15 min and 2 h. First, the MCF-7 cells were seeded in 10-cm culture dishes at a density of 2×10^5 cells/dish, overlaid with cover slips, and cultured for 24 h. Then, the cells were exposed to DOX-loaded micelles. After the predetermined incubation times, the cover slips were removed and washed with cold PBS three times after which, the cells were fixed by 4% paraformaldehyde in PBS at room temperature for 15 min. After fixation, the cells were permeabilized by 0.1% Triton X-100 in PBS for 10 min and then rinsed with PBS three times. The cells were incubated in 10 uM BODIPY® FL phallacidin/1% (w/v) BSA solution for 20 min and then rinsed with PBS three times. The cells were then incubated in 10 μM Topro-3 for 20 min and then rinsed with PBS three times. The cover slips were set onto microscope slides and examined by CLSM.
structure (smiles),measurement,setting,value
"COc1cccc2c1C(=O)c1c(O)c3c(c(O)c1C2=O)C[C@@](O)(C(=O)CO)C[C@@H]3O[C@H]1C[C@H](N)[C@H](O)[C@H](C)O1 [free DOX, doxorubicin]","Cytotoxicity, dose dependence",HepG2 cells,increases with increasing dose
same,Intracellular distribution of DOX fluorescence,"[1]; HepG2, 15-min incubation",evenly distributed in cell cytoplasm and the nuclei
same,Intracellular distribution of DOX fluorescence,"[1]; HepG2, 2 h exposure",DOX fluorescence accumulation was detected in and around the nuclei
same,Cell morphology after exposure,"[1]; HepG2, 24 h exposure",nucleus became distinctively swollen and the cytoplasm shrank
same,Intracellular distribution of DOX fluorescence,"[1]; HepG2, 24 h exposure",most of DOX fluorescence was distributed into the nucleus
same,Intracellular DOX fluorescence,"[2]; MCF-7, 15 min of incubation",fluorescing DOX molecules were observed intracellularly
same,Intracellular DOX fluorescence,"[2]; MCF-7, 2 hr of incubation",accumulations of DOX molecules around the nuclei
